# Source: ChEMBL document CHEMBL3507680, “University of Dundee, Gates Library screen for HepG2 cell viability”
# Experiment: Human HepG2 cell viability assay in 384 well format
# Type: toxicity, cell-based
# Set-up: dose 125 nL, time 70.5 hour; concentration not given beside the values
# Settings: HepG2 cells, read-out: Inhibition
row,Structure (SMILES),cytotoxicity at 70.5 h
1,OCCN(Cc1nc(-c2ccc3c(c2)OCO3)no1)Cc1cccs1,-16.8%
2,Cc1nnc(CNC(=O)[C@@H]2C[C@H](NC(=O)C(C)(C)C)CN2C)[nH]1,-9.08%
3,O=C(O)c1ccccc1-c1c(-c2ccccc2)ncn1C[C@H]1CCCN1,-3.04%
4,CCN1CC(CN(C)Cc2nc(-c3ccc(C)o3)oc2C)CC1=O (stereo not given),-6.14%
5,Cc1cc(C(=O)N2CC(O)CO2)c2cccc(C)c2n1 (stereo not given),-13%
6,CC(C)Oc1ccc2c(NC(=O)[C@H](C)O)nn(CC(F)(F)F)c2c1,-16.3%
7,COCC[C@]1(O)CCN(Cc2ccccn2)C[C@H]1C,-0.199%
8,CN1CCCC(CCC(=O)NCCc2nnc(N)s2)C1 (stereo not given),9.25%
9,CCCc1nc(N(C)CCN2CCCCCC2)c2cnn(C)c2n1,-11%
10,CC(C)c1nccn1C(C)C(=O)NC1CCN(S(C)(=O)=O)CC1 (stereo not given),3.51%
11,O=C(O)[C@@H]1CN(C(=O)c2ccc3nccnc3c2)C[C@H]1c1ccncc1,-7.07%
12,CNS(=O)(=O)c1ccc(CN(C)Cc2nc3ccc(F)cc3[nH]2)cc1,-4.95%
13,CC(=O)N1CCCN(c2nccc(-c3c(C)nn(C)c3C)n2)CC1,-3.87%
14,CCNc1nc(C)c(C(=O)N(C)Cc2nc(-c3ccncc3)no2)s1,1.19%
15,CCN(CC)C1CCN(c2nccc(C3CCCC3)n2)C1 (stereo not given),-13.5%
16,O=C(c1ccc2cccc(F)c2n1)N1CCN(CCn2cncn2)CC1,-9.3%
17,N#Cc1ccccc1CN1CCC(c2nccn2CC2CCC2)CC1,-1.95%
18,CCCc1nnc(NC2CCN(CCO)CC2)o1,-6.74%
19,Cc1nc(N)cc(NCc2csc(N(C)C)n2)n1,-4.3%
20,CCc1nc(Cn2nc(C3CCNCC3)n(-c3ccccc3)c2=O)cs1,-5.68%
21,Cc1nn(C)c2nc(NC(C)c3n[nH]c(=O)[nH]3)sc12 (stereo not given),-10.8%
22,Cc1ccc(OC2(C(=O)O)CCN(C(=O)CCc3ccco3)CC2)cn1,-0.99%

row,Structure (SMILES),cytotoxicity at 70.5 h
1,CC(C)N1CC2(CCCN(c3ccnc4ccccc34)C2)CCC1=O (stereo not given),-0.494%
2,CCN(CC)CCc1nc2c([nH]1)CC(c1ccc(Cl)cc1)CNC2=O (stereo not given),-3.81%
3,CC(C)c1nnc(CN2CCCC3(CC2)CN(C)C(=O)O3)o1 (stereo not given),-3.73%
4,Cc1nc(N2CCC3(CCCN(CC4CC4)C3=O)C2)c2sccc2n1 (stereo not given),0.2%
5,Cc1cc(C)nc(CN(C)C(=O)c2cccc(CCC(C)(C)O)c2)c1,-4.1%
6,O=C(CCNCc1cc(O)c2cc(F)ccc2n1)N1CCCC1,-8.32%
7,CN(C)C(C(=O)NC1(CO)CCCC1)c1ccc(F)cc1 (stereo not given),6.65%
8,CCCOc1ccccc1CCCNc1ncnc2oc(C)nc12,-7.16%
9,CCCNC(=O)N1CCc2ccc(S(=O)(=O)N3CCCC3)cc2C1,-10.1%
10,CNc1nc2c(c(C(=O)N3CCCC3)n1)CN(C(=O)CCSC)CC2,-1.55%
11,CSCc1noc(-c2ccc(C)c(N3CCNC3=O)c2)n1,-9.43%
12,Cn1cnnc1C1CCCN(Cc2nc(Cc3ccccc3)no2)C1 (stereo not given),13%
13,CN(C)C(=O)c1nc(CN2CC(c3ccccc3)CC2=O)no1 (stereo not given),10.4%
14,Cc1cc(CC(C)NC2CCN(CC(C)C)CC2)[nH]n1 (stereo not given),-10.6%
15,N[C@@H]1CC[C@H](C(=O)NCCn2cc(Cl)cn2)C1,3.97%
16,COc1cccc2c1OCC(C(=O)NCc1ncc3c(n1)CCC3)C2 (stereo not given),-9.1%
17,CCc1nnc(CN(CC)C(=O)C2CC(=O)N(Cc3cccnc3)C2)o1 (stereo not given),-11.4%
18,COc1ccc(NC2(C(=O)N3CCCn4cncc4C3)CCCC2)cc1,-13%
19,CN(C)CCO[C@H]1C[C@@H](O)C12CCN(c1nccc3ccccc13)CC2,-10.3%
20,Cc1nn(C)cc1-c1ccnc(NCCN)n1,-8.28%
21,Cc1nc[nH]c1CN1CCN(C(=O)C2(C)CC2)[C@H]2CS(=O)(=O)C[C@H]21,-11.5%
22,Cc1ccc(F)c(C(=O)N2C[C@@H](C(=O)O)[C@H](c3ccncc3)C2)c1Cl,-8.75%

row,Structure (SMILES),cytotoxicity at 70.5 h
1,COc1cccc(-c2noc(-c3ccc(NCC(C)O)nc3)n2)c1OC (stereo not given),-0.152%
2,O=C(O)COc1ccc(Cl)cc1CN1CCC2(CCNCC2)CC1,-11.2%
3,COc1ncccc1-c1nc(-c2ccccn2)nn1C1CCS(=O)(=O)C1 (stereo not given),-7.2%
4,Cc1nccnc1-n1c(COCC(=O)O)nc2c(C)cccc21,-1.07%
5,COCc1noc(CN2C[C@H](NS(C)(=O)=O)[C@@H](C3CC3)C2)n1,-11%
6,Cc1nc(C)c(C(=O)N2CCCC(C(=O)c3nccn3C)C2)s1 (stereo not given),-2.4%
7,COCCC1CN(Cc2cn(CCC(N)=O)c3ccccc23)CCO1 (stereo not given),-5.24%
8,CN1CC(c2ccccc2)CC12CCN(C(=O)c1ccc(Cl)cc1)CC2 (stereo not given),7.42%
9,CN1CC2(CCN(c3ncnc4c3CCNC4)CC2)OC1=O,-9.3%
10,CCC(C)N(Cc1ccncc1)Cc1ccc(-n2cccn2)cc1 (stereo not given),-5.94%
11,Cc1cc(C(=O)NC2CCCc3c2cnn3-c2cccc(C)c2C)[nH]n1 (stereo not given),-3.11%
12,CCn1c(N)nc2cc(C(=O)N(C)Cc3cc(C(C)(C)C)n[nH]3)cnc21,-5.41%
13,CCN(CC)S(=O)(=O)N1CCCC(c2nccn2Cc2ccncc2)C1 (stereo not given),8.67%
14,Cc1cc2c(=O)n(CCSc3ncn[nH]3)cnc2s1,-7.44%
15,COc1ccccc1S(=O)(=O)N1CCC2(CC1)OCCCC2O (stereo not given),-6.84%
16,COC(=O)N1CCN(c2ncnc3nc(C)cc(C)c23)CC1,-4.12%
17,CCN1CCC(N2CCN(C)C3(CCC(=O)N(CCOC)CC3)C2)CC1 (stereo not given),-9.42%
18,CN(Cc1cccc(C(=O)Nc2ccnn2C)c1)CC1(C)COC1,0.785%
19,CN1CCC(Cc2noc(-c3cccc4c3OCC4)n2)CC1,-8.69%
20,Cc1[nH]c2c(C)ccc(C)c2c1CC(=O)NCCNc1cccnc1,27%
21,CNc1nc(C)cc(NC2CCCN(C3Cc4ccccc4C3)C2)n1 (stereo not given),14.9%
22,Clc1cc(N2CCN(C3CCOCC3)CC2)nc2[nH]ccc12,-0.399%

row,Structure (SMILES),cytotoxicity at 70.5 h
1,CC(C)c1cc(N2CCC(NS(C)(=O)=O)CC2)n2nccc2n1,-2.38%
2,Cc1cc(N2CCC3(CCC(=O)N(CCCO)C3)CC2)nc(N(C)C)n1,-2.5%
3,COCc1nc(CN2CC(C)(c3ccccc3)CCC2=O)no1 (stereo not given),-6.99%
4,COc1ccc(C(C)C)cc1C1CC(=O)NCc2nc(N(C)C)sc21 (stereo not given),13.4%
5,CCN(C)C[C@@H]1CN(Cc2cccc(O)c2)C[C@@H]1CO,-11.8%
6,c1cc2c(cc1CN1CCC(Cc3noc(C4CC4)n3)CC1)OCCO2,20.2%
7,Fc1cnccc1CN1CCC2(CCNCC2)C1,-10.4%
8,Cc1cnn(CC(=O)N2CCC3(CCC(=O)N(CCCO)C3)CC2)c1,0.675%
9,CC(C)=CCN1C[C@H]2CC[C@@H]1CN(C(=O)c1ccc3[nH]cnc3c1)C2,3.14%
10,CN(C)CCCN(C)c1nccc(N2CCN[C@H]3CS(=O)(=O)C[C@H]32)n1,23.2%
11,CCOC(=O)CC1CCCCN1C(=O)c1cc(C)on1 (stereo not given),-8.65%
12,CCc1nc(C)c(C(=O)N[C@@H]2c3ccccc3C[C@@H]2O)o1,16%
13,Nc1nc2c(c(N3CCCC(CN4CCCC4=O)C3)n1)CCNCC2 (stereo not given),-5.58%
14,CC(C)(O)CCc1cccc(C(=O)N[C@H](C(N)=O)c2ccccc2)c1,-11%
15,CC(=O)N[C@@H]1CN(Cc2ccc(F)cc2F)C[C@H]1c1ccc(C)o1,11.7%
16,O=c1cc(-c2cccnc2)nc(-c2ccc(CN3CC[C@@H](O)C3)cc2)[nH]1,12.1%
17,CCS(=O)(=O)c1ncc(CN(C)Cc2ccccc2OC)n1CCOC,-5.74%
18,CN(CCNc1ncc2c(n1)CCN2c1ccccc1)S(C)(=O)=O,-9.7%
19,Cc1cnccc1N1CCCN(Cc2ccc(-c3cc[nH]n3)o2)CC1,-5.27%
20,CC(C)N1CCC2(CCCN(Cc3ccc(F)cc3)C2=O)C1 (stereo not given),27.4%
21,Cc1cc(CC(C)NC(=O)COc2ccc(F)cc2F)[nH]n1 (stereo not given),-5.3%
22,O=C(O)c1cc(-c2cn[nH]c2)cc(S(=O)(=O)N2CCSCC2)c1,-4.23%

row,Structure (SMILES),cytotoxicity at 70.5 h
1,Cc1nc(C)c(C)c(NCCSc2ccccn2)n1,-6.54%
2,CCCN1CCN(Cc2cc3cc(OCC)ccc3[nH]c2=O)CC1,-6.17%
3,Cc1ccc(-c2ccnc(N3CCC4(CC3)CNC(=O)O4)n2)c(C)n1,-9.43%
4,Cc1nc(N2C[C@@H](CN3CCCCC3)[C@@H](CO)C2)c2sccc2n1,8.31%
5,CS(=O)(=O)N[C@H]1CN(CCOCc2ccccc2)C[C@@H]1C1CC1,-2.16%
6,O=C(c1cc[nH]n1)N1CCc2ccc(S(=O)(=O)N3CCOCC3)cc2C1,3.21%
7,Cc1cc(C)c2c(N(C)CC3CCN(CC(C)C)C3)ncnc2n1 (stereo not given),-2.13%
8,O=C(Nc1ccccc1Cl)N1CCN(CC2CC2)[C@@H]2CS(=O)(=O)C[C@@H]21,16.8%
9,CCC1CN(C(=O)c2ccccc2N2CCCC2)CCN1C(C)C (stereo not given),-4.31%
10,Cc1cc(N2CCN(Cc3ccc(-c4cc[nH]n4)o3)CC2)cc(C)n1,19.1%
11,COc1ccc(F)cc1C(C(=O)O)N1CCSCC1 (stereo not given),-7.69%
12,Cc1ccc([C@@H]2CN(S(=O)(=O)C(C)C)C[C@H]2N(C)C)cc1,-12.5%
13,Cc1cccc(CN2CCN(Cc3ccccc3)CC(O)C2)n1 (stereo not given),-12.1%
14,Cc1cnc(N2CCCC3(CCCN(C)C3)C2)nc1 (stereo not given),-0.385%
15,Cc1cc(C)c2nc(CN3CCCC(c4cc[nH]n4)C3)cc(O)c2c1 (stereo not given),-2.87%
16,Cc1[nH]c(=O)[nH]c(=O)c1CN1CCCC(CCc2ccccc2)C1 (stereo not given),-5.9%
17,O=C(c1cc(=O)[nH]c(=O)[nH]1)N1CCCCC1c1nc2cc(F)ccc2[nH]1 (stereo not given),-6.77%
18,CCn1ccnc1CN1CCCC(CO)(Cc2cccc(Cl)c2)C1 (stereo not given),-1.73%
19,CCC1CN(C(=O)c2ccc(=O)[nH]c2)CCC(=O)N1Cc1ccccc1 (stereo not given),-2.4%
20,N#CCCSc1sc2c(O)cc(O)nc2c1C#N,13.6%
21,Cc1cc(C)n(NC(=O)c2ccccc2F)c(=O)c1,15.6%
22,Cc1cc(C)n(NC(=O)c2ccc(Cl)cc2Cl)c(=O)c1,-16.4%
